Series [1] in a line: Motesanib plasma pharmacokinetics (LC-MS/MS, noncompartmental). On the set-up: species or system human. As to conditions: in vivo; for half-life / Tmax / AUC(0-t) / concentration at 24 h / Cmax: human; for AUC(0-t) / concentration at 24 h / Cmax: week 3; for AUC(0-t): read-out: AUC0–24, median; for concentration at 24 h: read-out: C24, median; for Cmax: read-out: Cmax, median.
Protocol: Plasma concentrations of motesanib were analyzed using a validated liquid chromatography/tandem mass spectrometry (LC-MS/MS) method with a lower limit of quantitation (LLOQ) of 0.2 ng/mL (Cedra Corp., Austin, TX).
Pharmacokinetic parameter estimates were calculated according to standard noncompartmental methods using WinNonlin software (version 5.1.1; Pharsight Corporation, Mountain View, CA) and summarized by dose level. […] For the BID cohort, AUC0—24 values for motesanib were determined by 2 × AUC0—12. The terminal elimination rate constant (λZ) was determined by linear regression of the natural logarithms of plasma concentrations versus time during the terminal phase; the corresponding t1/2 was calculated.

In series [2] the test system is patients with solid tumors. On the procedure:
The safety endpoint was the incidence of adverse events. Tumor response rate, as assessed by Response Evaluation Criteria in Solid Tumors (RECIST) in patients with measurable disease, was an exploratory endpoint.
Enrollment of a minimum of six evaluable patients per cohort was planned. If patients discontinued the study before week 5 for any reason other than a DLT, additional patients could be enrolled to meet this goal. The selected motesanib doses (50 mg QD, 100 mg QD, 125 mg QD, and 75 mg BID) were based on the tolerability profiles of motesanib administered as monotherapy and in combination with gemcitabine that were obtained in previous studies. The BID dosing regimen is expected to achieve higher predose motesanib concentrations in the plasma than QD dosing owing to the higher total dose administered and more frequent dosing.
Treatment continued until the end of week 48 (11 cycles), or until disease progression, death, or unacceptable toxicity occurred. Motesanib administration (in cohorts 1-4) began on day 2 of week 2 of the first cycle and continued throughout the study. Patients experiencing continuous clinical benefit (stable disease or response) at the end of 48 weeks were eligible to continue motesanib monotherapy under a separate protocol.
Patients enrolled in cohort 1 received an initial dose of motesanib of 50 mg QD. If ≤ 2 patients experienced a DLT during the first 5 weeks of treatment, enrollment into cohort 2 (motesanib 75 mg BID) and cohort 3 (motesanib 125 mg QD) began simultaneously. If ≤ 2 patients in cohort 3 experienced a DLT in the first 5 weeks of treatment, the 125-mg QD dose would be considered the target once-daily dose.
All adverse events were graded by the investigator according to National Cancer Institute Common Terminology Criteria for Adverse Events (CTCAE) version 3.0. All adverse events were classified according to relatedness to treatment and seriousness. […]

Setting [3] is: 125 mg QD motesanib + 100 mg QD erlotinib + gemcitabine.
Where [4] appears, read: 125 mg QD motesanib + 150 mg QD erlotinib.

As a reminder, the Tmax is the time from dosing to the highest level. As a reminder, the Cmax is the highest concentration seen after dosing.

Like-named read-outs stand apart in the source and are kept apart here.

With `CC1(C)CNc2cc(NC(=O)c3cccnc3NCc3ccncc3)ccc21` [motesanib], the half-life in series [1] (100 mg, read-out: Mean estimated terminal elimination half-life (t1/2, z)) was 4.8 to 8.6 h; in series [1] (150 mg), 6 to 7.7 h. The time of peak concentration (Tmax) in series [1] (100 mg, read-out: Overall median tmax) is 0.6 to 2 h; in series [1] (150 mg) it was 2 h. For the same compound, the values for the AUC(0-t) in series [1] (setting [3]) and in series [1] (setting [4]) were 4770 ng·h/mL and 3120 ng·h/mL, respectively. The values for the concentration at 24 h in series [1] (setting [3]) and in series [1] (setting [4]) were 37 ng/mL and 44.7 ng/mL, respectively. For the same compound, the Cmax turned out to be 655 ng/mL in series [1] (setting [3]) and 443 ng/mL in series [1] (setting [4]). Also, the “Effect of combination on motesanib pharmacokinetics” value in series [1] is given as “not markedly affected”. The “Patients with dose-limiting toxicities, all cohorts” value in series [2] (human, in vivo, 5 weeks) is on record as 11 patients. Also, the “Maximum tolerated dose (MTD)” value came to 125 mg QD in series [2] (in combination with erlotinib only (150 mg QD)); 100 mg QD in series [2] (in combination with gemcitabine (1000 mg/m^2 weekly) and erlotinib (100 mg QD)).

The values are drawn from article PMC3161034 (BMC Cancer, 2011).
